Results published in US20130317214A1, “METHOD FOR PRODUCING MALEATE USING WET CRYSTAL” (KYORIN PHARMACEUTICAL CO., LTD., priority 2010, published 2013).

How the values were obtained:
[1] = Stability test of compound (2) (physical properties); type: physicochemical; conditions: for physical properties when stored under a condition of 30° C.: storage time not given
[2] = Stability test of compound (2) (powder X-ray diffraction); type: physicochemical; conditions: sealed in a brown bottle, stored at 25° C. for 2 weeks and 4 weeks
Method: A filling section of a plate sample holder made of glass was filled with a sample, and powder x-ray diffraction of the sample was then measured using RINT2200 powder x-ray diffractometer manufactured by Rigaku Corporation.
Tube current: 36 mA Tube voltage: 40 kV Scanning rate: 2°/min wavelength: 1.5405 Å (Kα1), 1.5443 Å (Kα2), 1.3922 Å (Kβ1) Divergence slit: 1° Receiving slit: 0.15 mm Scattering slit: 1° Anticathode: copper Scanning range: 5 to 40°
The wet crystal of the compound (2) (Example 1) and the dried product (Reference Example 1) were each sealed in a brown bottle, and stored at 25° C. for 2 weeks and 4 weeks. After the storage, the powder x-ray diffraction of each sample was measured in accordance with the method of Test Example 1.

| physical properties on 3 days after the storage at 30° C. ([1]; sealed in a brown bottle, 3 days) | physical properties when stored under a condition of 30° C. [1] | SMILES | crystal state by powder x-ray diffraction after storage [2] |
| --- | --- | --- | --- |
| changed into a glassy mass | changed into a glassy solid | CCc1cc(OC)cc2nc(-c3cccnc3N3CC[C@H](N(C)C)C3)oc(=O)c12 [dried product of the compound (2)] | complete amorphous form |
|  | the state of white powder was maintained | CCc1cc(OC)cc2nc(-c3cccnc3N3CC[C@H](N(C)C)C3)oc(=O)c12 [wet crystal of the compound (2)] | change in the crystal state of the wet crystal of the compound (2) was not observed |
